Experimental findings from PMC8162404, “Proteomimetic surface fragments distinguish targets by function” (Chemical Science, 2020) are described below.

The target of assay [1] is T1, CaM (Bos taurus, UniProt P62157).
T1 construct: made in house; host or cells: E. coli BL21 (DE3)
In words: Pull-down assay with immobilized protein and LSM libraries. The assay is classed as binding, bovine. The conditions noted are these: H14 library; 1:2 stoichiometry assumed; read-out: Surface mapping KD (apparent). In outline: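 CaM buffer was 20 mM HEPES pH 7.4, 150 mM NaCl, 5 mM CaCl2. LSM sublibrary members ([…]) incubated 30 min, RT, with equimolar His-tagged protein on Co-NTA resin. HPLC-MS measured unbound probes; bound fraction relative to resin-only background gave dissociation constants.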

Assay [2] deals with T2, Gal-1 (Homo sapiens, UniProt P09382).
T2 construct: made in house; host or cells: E. coli BL21(DE3)
T2 sequence (P09382 whole entry): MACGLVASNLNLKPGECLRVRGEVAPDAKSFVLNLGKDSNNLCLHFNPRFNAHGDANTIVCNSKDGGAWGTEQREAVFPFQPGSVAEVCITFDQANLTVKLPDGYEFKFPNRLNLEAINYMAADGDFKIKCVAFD
Described as above. The assay is classed as binding. The conditions noted are these: H14 library; 1:1 binding assumed; read-out: Surface mapping KD (apparent). In outline: (§1)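 Buffers were HEPES pH 7.4 with 150 mM NaCl, plus 1 mM TCEP and 1 mM CaCl2 (50 mM HEPES) for S100A4 and S100B, 1 mM TCEP for Gal-1, and no additive for RecQ-WH. Immobilized protein at 64 µM was equilibrated 30 min with the LSM sublibrary, and unbound probes were measured by LC-MS.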

The target of the next assay is T3, S100A4 (Homo sapiens, UniProt P26447).
T3 construct: made in house; host or cells: Escherichia coli BL21(DE3)
T3 sequence (P26447 whole entry): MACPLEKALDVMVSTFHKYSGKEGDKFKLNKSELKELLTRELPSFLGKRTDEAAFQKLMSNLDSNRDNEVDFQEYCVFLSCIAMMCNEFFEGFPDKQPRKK
The description is as above. The assay is classed as binding. The conditions noted are these: H14 library; 1:1 binding assumed; read-out: Surface mapping KD (apparent). In short, it runs like this:
as §1

The target of assay [3] is T4, S100B (Homo sapiens, UniProt P04271).
T4 construct: made in house; host or cells: Escherichia coli BL21(DE3)
T4 sequence (P04271 1-92): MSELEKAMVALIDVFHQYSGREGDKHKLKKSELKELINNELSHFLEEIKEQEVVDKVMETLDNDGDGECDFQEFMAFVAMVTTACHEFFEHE
Described as above. The assay is classed as binding. The conditions noted are these: H14 library; 1:1 binding assumed; read-out: Surface mapping KD (apparent). In outline: as §1

For assay [4], the target named is T4, S100B. Kind of assay: Competition pull-down with native ligand RSK1 (689–735). The assay is classed as binding. To be noted: H14 library; competitor peptide 200 µM; read-out: Surface mapping KD (apparent), competition.
The target of assay [5] is T1, CaM. Kind of assay: Competition pull-down with native ligand TRPV1-Ct15. To be noted: H14 library; competitor peptide 200 µM; read-out: Surface mapping KD (apparent), competition. It counts as binding, bovine.
The target in assay [6] is T2, Gal-1. Kind of assay: Competition pull-down with lactose. The conditions noted are these: H14 library; lactose 10 mM; read-out: Surface mapping KD (apparent), competition. The assay is classed as binding. In short, it runs like this:
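His6-tagged proteins immobilized on Co-NTA resin at 64 µM final with 64-member LSM foldamer sublibraries (1 M each, as printed) in pH 7.4 HEPES/NaCl buffers (Ca2+/TCEP per target), 30 min RT; competitor peptides 200 µM final, lactose 10 mM for Gal-1. Bound fractions from LC-MS loss vs protein-free resin; KD assuming 1:1 binding.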

As to `CC(C)[C@@H](CC(=O)N[C@H]1CCCC[C@@H]1C(=O)N[C@H]1CCCC[C@@H]1C(=O)N[C@@H](CCCNC(=N)N)CC(=O)N[C@H]1CCCC[C@@H]1C(N)=O)NC(=O)[C@H]1CCCC[C@@H]1N` [H14 VR], the Kd turned out to be 40 µM at CaM [1]; 289 µM at Gal-1 [2]; 284 µM on S100A4; 77 µM at S100B [3]; 221 µM at S100B [4].
For `CC(C)C[C@@H](CC(=O)N[C@H]1CCCC[C@@H]1C(=O)N[C@H]1CCCC[C@@H]1C(=O)N[C@H](CC(=O)N[C@H]1CCCC[C@@H]1C(N)=O)[C@@H](C)O)NC(=O)[C@H]1CCCC[C@@H]1N` [H14 LT] the same measures were 39 µM, 336 µM, 66 µM, 162 µM and 294 µM.
Consider `CC(C)C[C@@H](CC(=O)N[C@H]1CCCC[C@@H]1C(=O)N[C@H]1CCCC[C@@H]1C(=O)N[C@@H](CCCCN)CC(=O)N[C@H]1CCCC[C@@H]1C(N)=O)NC(=O)[C@H]1CCCC[C@@H]1N` [H14 LK], for which the Kd was determined as 27 µM at CaM [1], 312 µM at S100A4, 82 µM on S100B [3] and 316 µM on S100B [4].
In the case of `CC(C)[C@@H](CC(=O)N[C@H]1CCCC[C@@H]1C(=O)N[C@H]1CCCC[C@@H]1C(=O)N[C@@H](CO)CC(=O)N[C@H]1CCCC[C@@H]1C(N)=O)NC(=O)[C@H]1CCCC[C@@H]1N` [H14 VS], the Kd on CaM [1] was 264 µM; on Gal-1 [2], 190 µM; at S100A4, 263 µM; on S100B [4] it was 460 µM.
In the case of `NC(=O)CC[C@@H](CC(=O)N[C@H]1CCCC[C@@H]1C(N)=O)NC(=O)[C@H]1CCCC[C@@H]1NC(=O)[C@H]1CCCC[C@@H]1NC(=O)C[C@H](Cc1ccccc1)NC(=O)[C@H]1CCCC[C@@H]1N` [H14 FQ], the Kd came out at 49 µM on CaM [1], 377 µM at S100A4, 433 µM on S100B [3] and 494 µM on S100B [4].
In the case of `CSCC[C@@H](CC(=O)N[C@H]1CCCC[C@@H]1C(N)=O)NC(=O)[C@H]1CCCC[C@@H]1NC(=O)[C@H]1CCCC[C@@H]1NC(=O)C[C@H](CCC(=O)O)NC(=O)[C@H]1CCCC[C@@H]1N` [H14 EM], on S100B [4], the Kd worked out at 141 µM.
For `N=C(N)NCCC[C@@H](CC(=O)N[C@H]1CCCC[C@@H]1C(N)=O)NC(=O)[C@H]1CCCC[C@@H]1NC(=O)[C@H]1CCCC[C@@H]1NC(=O)C[C@H](CCC(N)=O)NC(=O)[C@H]1CCCC[C@@H]1N` [H14 QR], the Kd at CaM [1] was found to be 43 µM; on Gal-1 [2], 71 µM; at S100A4, 344 µM; on S100B [3], 107 µM; on CaM [5], 291 µM; on Gal-1 [6], 272 µM.
On to `CC(C)[C@@H](CC(=O)N[C@H]1CCCC[C@@H]1C(=O)N[C@H]1CCCC[C@@H]1C(=O)N[C@@H](CCC(N)=O)CC(=O)N[C@H]1CCCC[C@@H]1C(N)=O)NC(=O)[C@H]1CCCC[C@@H]1N` [H14 VQ], for which the Kd on Gal-1 [2] stood at 161 µM; at S100B [4], 339 µM.
In the case of `CC[C@H](C)[C@@H](CC(=O)N[C@H]1CCCC[C@@H]1C(=O)N[C@H]1CCCC[C@@H]1C(=O)N[C@@H](CCCNC(=N)N)CC(=O)N[C@H]1CCCC[C@@H]1C(N)=O)NC(=O)[C@H]1CCCC[C@@H]1N` [H14 IR], the Kd on CaM [1] amounted to 20 µM; at S100A4, 103 µM; on S100B [3], 37 µM; on S100B [4], 174 µM.
`NC(=O)[C@H]1CCCC[C@@H]1NC(=O)C[C@H](CO)NC(=O)[C@H]1CCCC[C@@H]1NC(=O)[C@H]1CCCC[C@@H]1NC(=O)C[C@H](Cc1ccc(O)cc1)NC(=O)[C@H]1CCCC[C@@H]1N` [H14 YS]: the Kd at CaM [1] turned out to be 67 µM; on Gal-1 [2], 336 µM; at S100A4, 346 µM; at S100B [4] it was 399 µM.
In the case of `CC[C@H](C)[C@@H](CC(=O)N[C@H]1CCCC[C@@H]1C(=O)N[C@H]1CCCC[C@@H]1C(=O)N[C@@H](CC(N)=O)CC(=O)N[C@H]1CCCC[C@@H]1C(N)=O)NC(=O)[C@H]1CCCC[C@@H]1N` [H14 IN], the Kd at CaM [1] amounted to 281 µM; at S100A4 it was 321 µM; on S100B [4] it was 325 µM.
As for `CC[C@H](C)[C@@H](CC(=O)N[C@H]1CCCC[C@@H]1C(N)=O)NC(=O)[C@H]1CCCC[C@@H]1NC(=O)[C@H]1CCCC[C@@H]1NC(=O)C[C@H](CO)NC(=O)[C@H]1CCCC[C@@H]1N` [H14 SI], the Kd on CaM [1] was 75 µM; at Gal-1 [2], 336 µM; on S100A4, 19 µM; at S100B [3] it was 380 µM; on CaM [5] it was 471 µM; on Gal-1 [6], 478 µM.
As for `CC[C@H](C)[C@@H](CC(=O)N[C@H]1CCCC[C@@H]1C(=O)N[C@H]1CCCC[C@@H]1C(=O)N[C@@H](CCC(N)=O)CC(=O)N[C@H]1CCCC[C@@H]1C(N)=O)NC(=O)[C@H]1CCCC[C@@H]1N` [H14 IQ], the Kd at CaM [1] came to 321 µM; at S100A4, 319 µM; on S100B [3], 497 µM; at S100B [4], 387 µM.
On to `CC(C)C[C@@H](CC(=O)N[C@H]1CCCC[C@@H]1C(N)=O)NC(=O)[C@H]1CCCC[C@@H]1NC(=O)[C@H]1CCCC[C@@H]1NC(=O)C[C@H](CO)NC(=O)[C@H]1CCCC[C@@H]1N` [H14 SL], for which the Kd on CaM [1] is 64 µM; at Gal-1 [2], 251 µM; on S100A4, 19 µM; at S100B [3] it was 380 µM; at CaM [5], 436 µM; at Gal-1 [6], 325 µM.
For `C[C@@H](O)[C@@H](CC(=O)N[C@H]1CCCC[C@@H]1C(=O)N[C@H]1CCCC[C@@H]1C(=O)N[C@@H](CCCNC(=N)N)CC(=O)N[C@H]1CCCC[C@@H]1C(N)=O)NC(=O)[C@H]1CCCC[C@@H]1N` [H14 TR], the Kd on CaM [1] stood at 75 µM; on Gal-1 [2], 372 µM; at S100A4, 407 µM; on S100B [3] it was 94 µM; at CaM [5], 338 µM; at Gal-1 [6], 432 µM.
For the compound `CC(C)[C@@H](CC(=O)N[C@H]1CCCC[C@@H]1C(=O)N[C@H]1CCCC[C@@H]1C(=O)N[C@@H](CC(N)=O)CC(=O)N[C@H]1CCCC[C@@H]1C(N)=O)NC(=O)[C@H]1CCCC[C@@H]1N` [H14 VN], the Kd amounted to 302 µM on Gal-1 [2] and 271 µM on S100B [4].
For `CC(C)[C@@H](CC(=O)N[C@H]1CCCC[C@@H]1C(=O)N[C@H]1CCCC[C@@H]1C(=O)N[C@@H](CCC(=O)O)CC(=O)N[C@H]1CCCC[C@@H]1C(N)=O)NC(=O)[C@H]1CCCC[C@@H]1N` [H14 VE] the same measures were 313 µM and 369 µM.
For `CSCC[C@@H](CC(=O)N[C@H]1CCCC[C@@H]1C(N)=O)NC(=O)[C@H]1CCCC[C@@H]1NC(=O)[C@H]1CCCC[C@@H]1NC(=O)C[C@@H](NC(=O)[C@H]1CCCC[C@@H]1N)C(C)C` [H14 VM], the Kd at CaM [1] came out at 26 µM; at S100A4, 5 µM; at S100B [3], 93 µM; on S100B [4], 229 µM.
As for `CC(C)[C@@H](CC(=O)N[C@H]1CCCC[C@@H]1C(=O)N[C@H]1CCCC[C@@H]1C(=O)N[C@@H](CCCCN)CC(=O)N[C@H]1CCCC[C@@H]1C(N)=O)NC(=O)[C@H]1CCCC[C@@H]1N` [H14 VK], the Kd was found to be 67 µM on CaM [1], 296 µM at Gal-1 [2], 138 µM on S100B [3] and 390 µM at S100B [4].
Consider `CC[C@H](C)[C@@H](CC(=O)N[C@H]1CCCC[C@@H]1C(=O)N[C@H]1CCCC[C@@H]1C(=O)N[C@@H](CCCCN)CC(=O)N[C@H]1CCCC[C@@H]1C(N)=O)NC(=O)[C@H]1CCCC[C@@H]1N` [H14 IK], for which the Kd amounted to 31 µM on CaM [1], 307 µM on S100A4, 84 µM on S100B [3] and 216 µM at S100B [4].
